Laboratory results: patent US4613613A, “γ-butyrolactone derivatives, process for preparing the same and immunomodulating compositions containing the same as active ingredients” (Mitsubishi Yuka Pharmaceutical Co., Ltd., priority 1983, dated 1986)

Experiments:
[1] = Acute Toxicity Test (oral, mortality by 3-days observation); details: mouse, in vivo, ddY male mice
Experimental: Using ddY strain male mice of 7-8 weeks old, each group consisting of 5 mice, a suspension of the present compound in a 1% tragacanth solution was administered orally. Then, mortality was examined by 3-days observation.

living body = details: background, known immunomodulating agents; cited from earlier work
adjuvant arthritis = test: Adjuvant Arthritis Inhibiting Activity (paw volume); assay type: in vivo, rat (F-344 strain male rats); details: measured after 24 days, * p < 0.05 (Ttest)
Experimental: F-344 strain male rats of 9 weeks old (Nippon Charles River), each group consisting of 8-10 rats, were employed for assessment of adjuvant arthritis inhibiting activity of the present compounds Arthritis was induced by subsutaneous injection of 100 μl of a 6% paraffin oil suspension of Mycobacterium butyricum into hind paw. The test compound was suspended in a 1% tragacanth solution and then administered orally everyday from the day of adjuvant injection up to the 21st day at a volume of 5 ml/kg. After 24 days from the sensitization, paw volume was measured Oral administration of solely a 1% tragacanth solution was applied for control.

[2] = 30 mg/Kg oral everyday to 21st day, Controls: 3.48 ± 0.11 (No. 23), 3.62 ± 0.06 (No. 40), 3.58 ± 0.20 (No. 83)
[3] = 300 mg/Kg oral everyday to 21st day, Controls: 3.48 ± 0.11 (No. 23), 3.62 ± 0.06 (No. 40)

Cc1ccc(C(=O)SCC2C(=O)OCC2c2ccccc2)cc1 (stereo not shown) [Compound 7]
LD50 at 72 h [1]: > 4000 mg/kg

O=C([O-])c1ccccc1Nc1cc(Cl)ccc1C(=O)[O-].[Na+].[Na+] [N-(2-carboxyphenyl)-4-chloroanthranilic acid disodium salt]
toxicity to a living body (in words) (living body): strong toxicity

c1ccc([C@H]2CN3CCSC3=N2)cc1 [Levamisole, levamisole, reference compound]
LD50 at 72 h [1]: < 1000 mg/kg | toxicity to a living body (in words) (living body): strong toxicity

Cc1ccc(C(=O)SCC2C(=O)OCC2c2ccc(Cl)cc2)cc1 (stereo not drawn) [Compound 1, β-(p-chlorophenyl)-α-(p-methylbenzoylthiomethyl)-γ-butyrolactone]
LD50 at 72 h [1]: > 4000 mg/kg

CC(C)(S)[C@@H](N)C(=O)O [D-penicillamine]
toxicity to a living body (in words) (living body): strong toxicity

CC(=O)SCC1C(=O)OCC1c1ccccc1 (stereo not drawn) [Compound 40, α-acetylthiomethyl-β-phenyl-γ-butyrolactone]
LD50 at 72 h [1]: > 2000 mg/kg | Paw volume (adjuvant arthritis; [2]): 3.18 ± 0.17 mL | Paw volume (adjuvant arthritis; [3]): 3.18 ± 0.18 mL

COc1ccc(C2COC(=O)C2CSC2CCCCC2)cc1 (stereo not drawn) [Compound 83, α-cyclohexylthiomethyl-β-(p-methoxyphenyl)-γ-butyrolactone]
Paw volume (adjuvant arthritis; [2]): 3.00 ± 0.16 mL

O=C1OCC(c2ccccc2)C1CSCc1ccccc1 (stereo not shown) [Compound 84]
LD50 at 72 h [1]: > 4000 mg/kg

O=C(SCC1C(=O)OCC1c1ccc(Cl)cc1)c1ccccc1 (stereo not drawn) [Compound 74, α-benzoylthiomethyl-β-(p-chlorophenyl)-γ-butyrolactone]
LD50 at 72 h [1]: > 4000 mg/kg

O=C(SC[C@@H]1C(=O)OC[C@H]1c1ccc(Cl)cc1)c1ccc(F)cc1 (relative stereo) [Compound 23]
LD50 at 72 h [1]: > 4000 mg/kg | Paw volume (adjuvant arthritis; 3 mg/Kg oral everyday to 21st day, Control 3.48 ± 0.11): 2.84 ± 0.25 mL | Paw volume (adjuvant arthritis; [2]): 2.78 ± 0.23 mL | Paw volume (adjuvant arthritis; [3]): 3.03 ± 0.25 mL
